Experimental data taken from publication PMC10982999, “Structure-Guided Design and Optimization of Covalent VHL-Targeted Sulfonyl Fluoride PROTACs” (Journal of Medicinal Chemistry, 2024).

Target: T1, VHL (VCB) (Homo sapiens, UniProt P40337)
T1 construct: human VHL (UniPort entry P40337, residues 1 -213); 6xHis followed by TEV site (N, cleaved yes); made in house; host or cells: E. coli One Shot BL21(DE3)
Assay: Intact-protein LC-MS of VCB labelling
Assay type: binding
Details: 100 μM compound, 24 h, room temperature
Protocol: Initially, we subjected VHL-SF2-Biotin to the streptavidin shift assay and observed a greater extent of VHL modification (44%) than for VHL-SF1-Biotin under the same conditions (Figure S2). […] Intact LC–MS analysis confirmed single labeling of VHL by VHL-SF2, with 65% conversion at 24 h (Figure S5). Although we attempted several site ID identification experiments by digesting the labeled recombinant VHL, the Ser110-containing peptide was not detected in the samples treated with VHL-SF2. This observation is consistent with a change in peptide properties that is incompatible with mass spectrometry detection compared to untreated samples (Table S2). […]
Figure S4. Dose-response of VHL-SF1 following a 2 h pre-incubation in the presence of VCB and FAM-conjugated HIF1α-derived peptide, assessed by fluorescence polarization. […]
HEK293 cells (10 × 10^6 cells at 2 × 10^5 cells/ mL) were transfected with 2.6 µg of VHL-NanoLuc plasmid (PROMEGA) plus 24 µg of transfection carrier plasmid (PROMEGA) and incubated for 20 h at 37 °C, in a 5% CO2 incubator. […] Immediately after addition of tracer and compounds, cells were treated with digitonin after which NanoBRET Nano-Glo Substrate and inhibitor were added and BRET signal was measured in a Clariostar plate reader (BMG Labtech) at 450 nm and 610 nm within 5 min after addition of digitonin. […]

Compound: Cc1cc([C@H](C(=O)N2C[C@H](S(=O)(=O)F)C[C@H]2C(=O)N[C@@H](CC(=O)OC(C)(C)C)c2ccc(-c3scnc3C)cc2)C(C)C)on1 [VHL-SF2, tert-Butyl (S)-3-((2S,4R)-4-(Fluorosulfonyl)-1-((R)-3-methyl-2-(3-methylisoxazol-5-yl)butanoyl)pyrr-olidine-2-carboxamido)-3-(4-(4-methylthiazol-5-yl)phenyl)propanoate]
- conversion, single (mono) labelling of VHL: 65%
